{
  "source": "patent US20210386752A1",
  "about": "“Uses of Electron Transport Chain Complex I or Complex II Inhibitors in Treating Cancer, Combination Therapies, and Diagnostic Methods Related Thereto” (Emory University, priority 2020, published 2021)",
  "key": {"[1]": {"target": "T1, succinate dehydrogenase (SDH) (Homo sapiens, UniProt P31040)", "T1 construct": "endogenous in cells; host or cells: KMS11 multiple myeloma cells, permeabilized", "T1 sequence (P31040 43-664)": "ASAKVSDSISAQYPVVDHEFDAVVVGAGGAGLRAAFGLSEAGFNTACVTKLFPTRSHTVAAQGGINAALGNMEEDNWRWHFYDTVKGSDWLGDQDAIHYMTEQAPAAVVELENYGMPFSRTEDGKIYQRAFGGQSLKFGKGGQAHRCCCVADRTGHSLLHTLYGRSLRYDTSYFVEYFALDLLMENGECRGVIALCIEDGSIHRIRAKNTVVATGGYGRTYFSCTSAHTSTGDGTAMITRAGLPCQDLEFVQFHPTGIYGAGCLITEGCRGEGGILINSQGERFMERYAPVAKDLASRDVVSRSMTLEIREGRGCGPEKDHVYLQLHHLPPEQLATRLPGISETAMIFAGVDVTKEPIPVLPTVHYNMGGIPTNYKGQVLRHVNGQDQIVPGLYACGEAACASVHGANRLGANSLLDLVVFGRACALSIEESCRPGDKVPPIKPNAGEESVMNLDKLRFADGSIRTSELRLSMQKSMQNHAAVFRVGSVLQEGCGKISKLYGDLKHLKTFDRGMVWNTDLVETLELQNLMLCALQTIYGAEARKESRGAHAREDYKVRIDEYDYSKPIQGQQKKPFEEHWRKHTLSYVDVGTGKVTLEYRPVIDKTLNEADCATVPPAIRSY", "T1 sequence (P21912 29-280 partner)": "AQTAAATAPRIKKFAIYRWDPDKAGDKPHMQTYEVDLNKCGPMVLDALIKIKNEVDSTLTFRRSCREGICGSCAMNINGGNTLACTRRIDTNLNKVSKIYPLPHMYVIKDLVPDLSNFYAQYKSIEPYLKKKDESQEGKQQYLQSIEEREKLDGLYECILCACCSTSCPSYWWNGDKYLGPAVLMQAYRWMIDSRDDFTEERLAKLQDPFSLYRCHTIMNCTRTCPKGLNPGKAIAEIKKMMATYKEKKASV", "T1 sequence (Q99643 30-169 partner)": "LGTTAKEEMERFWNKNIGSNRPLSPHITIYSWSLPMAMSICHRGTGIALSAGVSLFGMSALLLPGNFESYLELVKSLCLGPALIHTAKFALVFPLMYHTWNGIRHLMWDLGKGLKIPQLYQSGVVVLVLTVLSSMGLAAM", "T1 sequence (O14521 57-159 partner)": "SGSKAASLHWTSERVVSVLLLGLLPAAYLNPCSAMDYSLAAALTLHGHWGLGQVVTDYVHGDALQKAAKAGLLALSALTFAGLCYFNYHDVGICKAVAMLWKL", "test": "SDH activity assay in permeabilized cells", "type": "biochemical", "conditions": "TTFA-treated KMS11 cells", "excerpt": "Given reduced oxygen consumption rates (OCR) in sensitive cells, the activities of mitochondrial Complex I and II were examined. Mitochondrial Complex I and II receive electrons from the electron donors NADH or FADH2 respectively, that are transferred to the terminal electron acceptor (O2) via a series of redox reactions. Complex I or NADH:Coenzyme Q:oxidoreductase is the largest multimeric respiratory complex of ETC comprised of over 40 subunits with its catalytic subunit containing the NADH binding site. Electrons from NADH are transferred to FMN and then to FeS clusters and finally to ubiquinone where ubiquinone is reduced to ubiquinol. Complex II is the only enzyme that has a direct role both in the TCA cycle and ETC. […] Complex I activity was measured using an assay that relies on immunocapture of Complex I from freshly prepared cellular protein extracts. The NADH dehydrogenase activity of immunocaptured Complex I was determined by the oxidation of NADH and simultaneous reduction of the provided dye resulting in increase in absorbance. SDH and SQR activities were measured in live permeabilized cells, containing intact mitochondria pretreated with inhibitors of Complex I (rotenone), Complex III (antimycin) and Complex IV (sodium azide), allowing for selective measurement of SQR or SDH activity. […]"}, "BIM binding to BCL-2": {"test_system": "BIM binding to BCL-2", "test": "Coimmunoprecipitation of BCL-2 and bound BIM", "type": "cell-based", "conditions": "TTFA-treated KMS11 cells", "experimental": "The regulation of ATF4, BIM and NOXA in MM cells that were not sensitized by TTFA treatment were investigated. Whole-cell lysates were evaluated for total protein expression. Coimmunoprecipitations was performed to examine binding of BIM with antiapoptotic BCL-2 in KMS11 and the TTFA insensitive-t(11;14) KMS21BM cells. Induction of BIM and NOXA were observed upon TTFA treatment (FIG. 5J) only in KMS11 not in the TTFA insensitive-t(11;14) KMS21BM cells."}, "[2]": {"test_system": "MM lines (L363 and KMS11)", "test": "Colony-forming unit assay in agar matrix, TTFA-venetoclax cotreatment", "type": "cell-based", "conditions": "L363 and KMS11, venetoclax 0.1 μM", "experimental": "Given the unique role of Complex II in directly connecting the TCA cycle to the ETC, the impact of selectively inhibiting either the SDH or SQR activities of Complex II on venetoclax sensitivity was tested. The venetoclax sensitization effects of TTFA (SQR inhibitor) or 3NPA (SDH inhibitor) were tested on eight venetoclax-resistant MM lines (FIG. 3A-3H). 3NPA is a structural analog of succinate, which binds irreversibly with SDH inhibiting FAD reduction and fumarate production while TTFA is a direct Qp site inhibitor. […] The efficacy of the TTFA-venetoclax cotreatment strategy was also tested in a colony-forming unit assay. MM lines (L363 and KMS11) were cultured in an agar matrix with single agents or the combination."}, "MM cell lines": {"test_system": "MM cell lines", "test": "Spare respiratory capacity (Seahorse XFe96 stress assay)", "type": "cell-based", "conditions": "TTFA treated KMS11 cells", "experimental": "Spare capacity in venetoclax-sensitive and venetoclax -resistant cells was determined by subtracting basal OCR from maximal OCR."}},
  "data": [
    {"smiles": "O=C(CC(=O)C(F)(F)F)c1cccs1", "note": "[TTFA, 4,4,4-trifluoro-1-(2-thienyl)-1,3-butanedione]", "values": [
      {"measurement": "SDH activity", "setting": "[1]", "value": "remained unaffected"},
      {"measurement": "BIM binding to BCL-2", "setting": "BIM binding to BCL-2", "value": "elevated BIM binding to BCL-2"},
      {"measurement": "sensitization to venetoclax, cellular viability in colony-forming unit assay", "setting": "[2]", "value": "sensitized MM lines to a lower dose of venetoclax"},
      {"measurement": "spare respiratory capacity (SRC)", "setting": "MM cell lines", "value": "concordantly reduced"}
    ]}
  ]
}
